Where a name gives a salt, the structure may show the parent alone. Read-outs that look alike come from different tables or passages of the source.
Target: human KAT II (hKAT II) enzyme (Homo sapiens, UniProt Q8N5Z0)
Experiment: KAT II Inhibition Spectra Assay
Type: biochemical
Conditions: hKAT II, decrease in OD370, 37° C., 15-20 h, read-out: KATII IC50
Experimental: Formation of kynurenic acid (KYNA) is indirectly assessed by a decrease in light absorbance at 370 nm (OD370) as the L-kynurenine (KYN) substrate is converted by the human KAT II (hKAT II) enzyme into KYNA. An inhibitor would therefore inhibit the decrease in OD370.
The protocol was performed by placing the following reagents into a Costar 384 well black plate (30 μL total assay volume/well): • 10 μL of 3× concentrated compound; • 10 μL of 3× concentrated substrate mix (BGG (Sigma G-5009); 3 mM L-Kynurenine in 150 mM Tris Acetate (Sigma K3750); 3 mM α-ketoglutaric acid in 150 mM Tris Acetate (Sigma K2010); and 210 μM pyridoxal 5-phosphate (PLP) in 150 mM Tris Acetate (Sigma 9255)); and • 10 μL of 3× concentrated enzyme (15 nM enzyme in 150 mM Tris Acetate with 0.3% bovine serum).
Plates were sealed and incubated at 37° C. for 15-20 h before reading OD370 on a SpectraMax Plus plate reader. IC50s were generated by comparing the efficacy of compounds across a concentration range to inhibit a reduction in the OD370 value relative to assay wells with DMSO added in place of concentrated compound.

Chain of human KAT II (hKAT II) enzyme (Q8N5Z0 30-425): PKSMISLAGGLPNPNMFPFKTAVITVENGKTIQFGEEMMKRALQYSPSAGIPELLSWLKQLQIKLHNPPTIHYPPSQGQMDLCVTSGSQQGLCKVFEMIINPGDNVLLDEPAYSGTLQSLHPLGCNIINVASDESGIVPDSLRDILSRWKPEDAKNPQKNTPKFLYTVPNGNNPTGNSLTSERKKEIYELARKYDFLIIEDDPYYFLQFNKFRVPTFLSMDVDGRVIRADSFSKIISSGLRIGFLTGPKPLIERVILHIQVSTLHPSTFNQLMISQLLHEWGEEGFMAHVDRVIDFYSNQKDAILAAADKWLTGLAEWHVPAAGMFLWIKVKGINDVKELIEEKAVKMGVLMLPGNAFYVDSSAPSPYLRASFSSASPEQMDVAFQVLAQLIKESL

Compound | IC50 (Table 6) | IC50 (Table 5)
N[C@H]1Cc2cc(-c3cccc(OC(F)(F)F)c3)ccc2N(O)C1=O [Example 131, (3S)-3-amino-1-hydroxy-6-[3-(trifluoromethoxy)phenyl]-3,4-dihydroquinolin-2(1H)-one, trifluoroacetate salt] | 246 nM | –
Cc1cc(Cl)cc2c1N(O)C(=O)C(N)C2 (stereo not drawn) [Example 8, 3-amino-6-chloro-1-hydroxy-8-methyl-3,4-dihydroquinolin-2(1H)-one] | – | 608 nM
N[C@H]1Cc2cc(Oc3cccc(OC(F)(F)F)c3)ccc2N(O)C1=O [Example 169, (3S)-3-amino-1-hydroxy-6-[3-(trifluoromethoxy)phenoxy]-3,4-dihydroquinolin-2(1H)-one, trifluoroacetate salt] | 123 nM | –
N[C@H]1Cc2cc(F)cc(F)c2N(O)C1=O [Example 120] | 61.9 nM | –
NC1Cc2ccc(-c3cccc(C(F)(F)F)c3)cc2N(O)C1=O (stereo not drawn) [Example 46, 3-amino-1-hydroxy-7-[3-(trifluoromethyl)phenyl]-3,4-dihydroquinolin-2(1H)-one, trifluoroacetate salt] | – | 128 nM
Cc1cccc(-c2ccc3c(c2)N(O)C(=O)C(N)C3)c1C (stereo not drawn) [Example 47, 3-amino-7-(2,3-dimethylphenyl)-1-hydroxy-3,4-dihydroquinolin-2(1H)-one, trifluoroacetate salt] | – | 118 nM
NC1Cc2cc(Oc3ccc(O)nc3)ccc2N(O)C1=O (stereo not drawn) [Example 84] | 41.1 nM | –
CCOc1ccccc1-c1ccc2c(c1)C[C@H](N)C(=O)N2O [Example 141, (3S)-3-amino-6-(2-ethoxyphenyl)-1-hydroxy-3,4-dihydroquinolin-2(1H)-one, trifluoroacetate salt] | 283 nM | –
N[C@H]1Cc2cc(-c3cccc(C(F)(F)F)c3)ccc2N(O)C1=O [Example 144, (3S)-3-amino-1-hydroxy-6-[3-(trifluoromethyl)phenyl]-3,4-dihydroquinolin-2(1H)-one, trifluoroacetate salt] | 145 nM | –
N[C@H]1Cc2cc(Oc3ccccc3)cnc2N(O)C1=O [Example 66, (3S)-3-amino-1-hydroxy-6-phenoxy-3,4-dihydro-1,8-naphthyridin-2(1H)-one] | 23.1 nM | –
NC1Cc2ccc(-c3ccc(C(F)(F)F)cc3)cc2N(O)C1=O (stereo not drawn) [Example 53, 3-amino-1-hydroxy-7-[4-(trifluoromethyl)phenyl]-3,4-dihydroquinolin-2(1H)-one, trifluoroacetate salt] | – | 206 nM
NC1Cc2c(ccc3ccccc23)N(O)C1=O (stereo not drawn) [Example 11, 2-amino-4-hydroxy-1,2-dihydrobenzo[f]quinolin-3(4H)-one] | – | 121 nM
COc1cccc(Oc2ccc3c(c2)C[C@H](N)C(=O)N3O)c1 [Example 78] | 17.3 nM | –
N[C@H]1Cc2c(ccc(Cl)c2F)N(O)C1=O [Example 117] | 53.7 nM | –
N[C@H]1Cc2cc(Oc3cncc(Cl)c3)ccc2N(O)C1=O [Example 170, (3S)-3-amino-6-[(5-chloropyridin-3-yl)oxy]-1-hydroxy-3,4-dihydroquinolin-2(1H)-one, ammonium salt] | 28.9 nM | –
NC1Cc2cc(C(F)(F)F)ccc2N(O)C1=O (stereo not drawn) [Example 10, 3-amino-1-hydroxy-6-(trifluoromethyl)-3,4-dihydroquinolin-2(1H)-one, hydrochloride salt] | – | 73.7 nM
CC(C)c1ccc(-c2ccc3c(c2)N(O)C(=O)C(N)C3)cc1 (stereo not drawn) [Example 55, 3-amino-1-hydroxy-7-(4-isopropylphenyl)-3,4-dihydroquinolin-2(1H)-one, trifluoroacetate salt] | – | 141 nM
NC1Cc2ccc(C3CC3)cc2N(O)C1=O (stereo not drawn) [Example 30] | – | 23.7 nM
N[C@H]1Cc2cc(Oc3cccc(C(F)(F)F)c3F)ccc2N(O)C1=O [Example 160, (3S)-3-amino-6-[2-fluoro-3-(trifluoromethyl)phenoxy]-1-hydroxy-3,4-dihydroquinolin-2(1H)-one, trifluoroacetate salt] | 101 nM | –
N[C@H]1Cc2cc(Oc3ccc(Cl)c(C(F)(F)F)c3)ccc2N(O)C1=O [Example 158, (3S)-3-amino-6-[4-chloro-3-(trifluoromethyl)phenoxy]-1-hydroxy-3,4-dihydroquinolin-2(1H)-one, trifluoroacetate salt] | 126 nM | –
NC1Cc2cccnc2N(O)C1=O (stereo not drawn) [Example 1, 3-amino-1-hydroxy-3,4-dihydro-1,8-naphthyridin-2(1H)-one, trifluoroacetate salt] | – | 52.7 nM
Cc1cccc2c1N(O)C(=O)C(N)C2 (stereo not drawn) [Example 19] | – | 3040 nM
NC1Cc2cc(Oc3ccccc3Cl)ccc2N(O)C1=O (stereo not drawn) [Example 69, 3-amino-6-(2-chlorophenoxy)-1-hydroxy-3,4-dihydroquinolin-2(1H)-one, hydrochloride salt] | 43.3 nM | –
NC1Cc2cc(F)ccc2N(O)C1=O (stereo not drawn) [Example 2, 3-amino-6-fluoro-1-hydroxy-3,4-dihydroquinolin-2(1H)-one, hydrochloride salt] | – | 23.4 nM
N[C@H]1Cc2c(ccc(C3CC3)c2F)N(O)C1=O [Example 116] | 51.9 nM | –
N[C@H]1Cc2cc(-c3cc(F)ccc3F)ccc2N(O)C1=O [Example 133, (3S)-3-amino-6-(2,5-difluorophenyl)-1-hydroxy-3,4-dihydroquinolin-2(1H)-one, trifluoroacetate salt] | 86.6 nM | –

Compound | IC50 (Table 6) | IC50 (Table 5)
Cc1ccc(Oc2ccc3c(c2)CC(N)C(=O)N3O)cn1 (stereo not drawn) [Example 88] | 20.9 nM | –
N[C@@H]1Cc2ccccc2N(O)C1=O [Example 14] | – | 270 nM
NC1Cc2ccc(Cl)cc2N(O)C1=O (stereo not drawn) [Example 15] | – | 11.1 nM
NC1Cc2ccc(-c3cc(Cl)cc(Cl)c3)cc2N(O)C1=O (stereo not drawn) [Example 58, 3-amino-7-(3,5-dichlorophenyl)-1-hydroxy-3,4-dihydroquinolin-2(1H)-one, trifluoroacetate salt] | – | 174 nM
N[C@H]1Cc2cc(Cc3ccccc3)ccc2N(O)C1=O [Example 68, (3S)-3-amino-6-benzyl-1-hydroxy-3,4-dihydroquinolin-2(1H)-one, trifluoroacetic acid salt] | 42.7 nM | –
Cc1cccc(-c2ccc3c(c2)C[C@H](N)C(=O)N3O)c1 [Example 146, (3S)-3-amino-1-hydroxy-6-(3-methylphenyl)-3,4-dihydroquinolin-2(1H)-one, trifluoroacetate salt] | 78.6 nM | –
NC1Cc2cc(Oc3cccc(C(F)(F)F)c3)ccc2N(O)C1=O (stereo not drawn) [Example 93] | 35.6 nM | –
COc1cc2c(cc1Cc1cccc(C#N)c1)C[C@H](N)C(=O)N2O [Example 126] | 30.9 nM | –
N[C@H]1Cc2cc(-c3cccc(Cl)c3Cl)ccc2N(O)C1=O [Example 145, (3S)-3-amino-6-(2,3-dichlorophenyl)-1-hydroxy-3,4-dihydroquinolin-2(1H)-one, trifluoroacetate salt] | 179 nM | –
N[C@H]1Cc2cc(Cc3ccccc3)cnc2N(O)C1=O [Example 127] | 28.2 nM | –
N[C@H]1Cc2cc(Cl)cc(F)c2N(O)C1=O [Example 31] | – | 49.7 nM
COc1ccc(-c2ccc3c(c2)N(O)C(=O)C(N)C3)cc1F (stereo not drawn) [Example 49, 3-amino-7-(3-fluoro-4-methoxyphenyl)-1-hydroxy-3,4-dihydroquinolin-2(1H)-one, trifluoroacetate salt] | – | 105 nM
N[C@H]1Cc2cccc(-c3ccccc3)c2N(O)C1=O [Example 97] | 313 nM | –
N[C@H]1Cc2c(F)cccc2N(O)C1=O [Example 27] | – | 51.9 nM
Cc1ccc(Oc2ccc3c(c2)CC(N)C(=O)N3O)cc1 (stereo not drawn) [Example 98] | 31.9 nM | –
COc1cccc(Cc2cc3c(cc2OC)N(O)C(=O)[C@@H](N)C3)c1 [Example 125] | 17.2 nM | –
N[C@H]1Cc2ccncc2N(O)C1=O [Example 130] | 1570 nM | –
NC1Cc2ccc(-c3ccccc3)cc2N(O)C1=O (stereo not drawn) [Example 42, 3-amino-1-hydroxy-7-phenyl-3,4-dihydroquinolin-2(1H)-one, trifluoroacetate salt] | – | 101 nM
N[C@H]1Cc2cc(Cl)cc(Cl)c2N(O)C1=O [Example 113] | 301 nM | –
N[C@H]1Cc2cc(Br)cc(C(F)(F)F)c2N(O)C1=O [Example 24] | – | 50 nM
COc1cc(Cl)c2c(c1)N(O)C(=O)[C@@H](N)C2 [Example 104] | 307 nM | –
NC1Cc2ccc(-c3cc(F)ccc3F)cc2N(O)C1=O (stereo not drawn) [Example 50, 3-amino-7-(2,5-difluorophenyl)-1-hydroxy-3,4-dihydroquinolin-2(1H)-one, trifluoroacetate salt] | – | 103 nM
COc1cccc(-c2ccc3c(c2)N(O)C(=O)C(N)C3)c1 (stereo not drawn) [Example 13, 3-amino-1-hydroxy-7-(3-methoxyphenyl)-3,4-dihydroquinolin-2(1H)-one, hydrochloride salt] | – | 57.3 nM
N[C@H]1Cc2cc(Oc3cc(F)ccc3F)ccc2N(O)C1=O [Example 157, (3S)-3-amino-6-(2,5-difluorophenoxy)-1-hydroxy-3,4-dihydroquinolin-2(1H)-one, trifluoroacetate salt] | 68.5 nM | –
COc1ccc(F)cc1-c1ccc2c(c1)N(O)C(=O)C(N)C2 (stereo not drawn) [Example 59, 3-amino-7-(5-fluoro-2-methoxyphenyl)-1-hydroxy-3,4-dihydroquinolin-2(1H)-one, trifluoroacetate salt] | – | 156 nM

Source: US8183238B2, “Bicyclic and tricyclic compounds as KAT II inhibitors” (priority 2009, dated 2012)
